± gives the standard deviation of the averaged measurements.
Assays:
[1] = system: Danio rerio embryo
Method: (§1)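 Zebrafish embryos (UFZ-OBI strain) were exposed from 2 hpf for 48 h (2 dpf) or 96 h (4 dpf) at 28 °C; spontaneous tail coiling was scored at 25 hpf. Morphological features from automated image analysis (FishInspector), heart rate and locomotor response were fitted with drc models. Quantal endpoints were dichotomised at 2.5 SD from controls and fitted with a log-logistic model; heart rate, pigmentation and STC were normalised to the replicate control mean. Betamethasone was tested as betamethasone dipropionate, diflorasone as diflorasone diacetate.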

[2] = system: Danio rerio embryo; conditions: exposure time: 4 dpf
Method: as §1

[3] = system: Danio rerio embryo; test: EC50 Curvature_Increase; conditions: exposure time: 2 dpf
Method: as §1

[4] = system: Danio rerio embryo; test: EC50 Body length_Decrease
Method: as §1

[5] = system: Danio rerio embryo; test: EC50 Bladder size_Decrease; conditions: exposure time: 4 dpf
Method: as §1

[6] = system: Danio rerio embryo; test: EC50 Pericard size_Increase
Method: as §1

[7] = system: Danio rerio embryo; test: EC50 Yolk sac size_Increase; conditions: exposure time: 4 dpf
Method: as §1

[8] = system: Danio rerio embryo; test: EC50 Eye-jaw distance_Decrease; conditions: exposure time: 4 dpf
Method: as §1

[9] = system: Danio rerio embryo; test: EC50 Otolith-eye distance_Decrease; conditions: exposure time: 4 dpf
Method: as §1

[10] = system: Danio rerio embryo; test: EC10 LMR dark; higher = less potent; conditions: exposure time: 4 dpf
Method: as §1

[11] = system: Danio rerio embryo; test: EC20 LMR dark; higher = less potent; conditions: exposure time: 4 dpf
Method: as §1

[12] = system: Danio rerio embryo; test: EC20 Any effect; higher = less potent
Method: as §1

[13] = system: Danio rerio embryo; test: EC10 Any effect; higher = less potent
Method: as §1

[14] = system: Danio rerio embryo; test: EC10 Curvature_Increase; higher = less potent; conditions: exposure time: 2 dpf
Method: as §1

[15] = system: Danio rerio embryo; test: EC20 Curvature_Increase; higher = less potent; conditions: exposure time: 2 dpf
Method: as §1

[16] = system: Danio rerio embryo; test: EC20 Body length_Decrease; higher = less potent
Method: as §1

[17] = system: Danio rerio embryo; test: EC10 Body length_Decrease; higher = less potent
Method: as §1

[18] = system: Danio rerio embryo; test: EC10 Bladder size_Decrease; higher = less potent; conditions: exposure time: 4 dpf
Method: as §1

[19] = system: Danio rerio embryo; test: EC20 Bladder size_Decrease; higher = less potent; conditions: exposure time: 4 dpf
Method: as §1

[20] = system: Danio rerio embryo; test: EC20 Yolk sac size_Increase; higher = less potent; conditions: exposure time: 4 dpf
Method: as §1

[21] = system: Danio rerio embryo; test: EC20 Pericard size_Increase; higher = less potent
Method: as §1

[22] = system: Danio rerio embryo; test: EC10 Yolk sac size_Increase; higher = less potent; conditions: exposure time: 4 dpf
Method: as §1

[23] = system: Danio rerio embryo; test: EC10 Pericard size_Increase; higher = less potent
Method: as §1

[24] = system: Danio rerio embryo; test: EC20 Eye-jaw distance_Decrease; higher = less potent; conditions: exposure time: 4 dpf
Method: as §1

[25] = system: Danio rerio embryo; test: EC10 Eye-jaw distance_Decrease; higher = less potent; conditions: exposure time: 4 dpf
Method: as §1

[26] = system: Danio rerio embryo; test: EC20 Otolith-eye distance_Decrease; higher = less potent; conditions: exposure time: 4 dpf
Method: as §1

[27] = system: Danio rerio embryo; test: EC10 Otolith-eye distance_Decrease; higher = less potent; conditions: exposure time: 4 dpf
Method: as §1

[28] = system: Danio rerio embryo; test: spontaneous tail coiling frequency (coils/min/embryo); higher = more spontaneous movement; conditions: 25 hpf
Method: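 Spontaneous tail coilings of zebrafish embryos exposed from 2 hpf were recorded at 24-25 hpf in 1-min videos and detected by a KNIME workflow from grey-value variance. Betamethasone was tested as the dipropionate, diflorasone as the diacetate.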

CCCCOC(=O)[C@@H](C)Oc1ccc(Oc2ccc(C(F)(F)F)cn2)cc1 [fluazifop-p-butyl]
Conditions	EC10 Any effect [nM]	EC10 Body length Decrease [nM]	EC10 Pericard size Increase [nM]	EC20 Any effect [nM]	EC20 Body length Decrease [nM]	EC20 Pericard size Increase [nM]	EC50 Any effect [nM]	EC50 Body length Decrease [nM]	EC50 Otolith [nM]	EC50 Pericard size Increase [nM]	spontaneous tail coiling frequency
[1], exposure time: 2 dpf	–	–	–	–	–	–	3100	–	9450	–	–
[1], exposure time: 4 dpf	–	–	–	–	–	–	1540	–	–	–	–
[4], exposure time: 2 dpf	–	–	–	–	–	–	–	3700	–	–	–
[4], exposure time: 4 dpf	–	–	–	–	–	–	–	2670	–	–	–
[6], exposure time: 2 dpf	–	–	–	–	–	–	–	–	–	6560	–
[6], exposure time: 4 dpf	–	–	–	–	–	–	–	–	–	2110	–
[12], exposure time: 2 dpf	–	–	–	942	–	–	–	–	–	–	–
[12], exposure time: 4 dpf	–	–	–	624	–	–	–	–	–	–	–
[13], exposure time: 2 dpf	469	–	–	–	–	–	–	–	–	–	–
[13], exposure time: 4 dpf	368	–	–	–	–	–	–	–	–	–	–
[16], exposure time: 2 dpf	–	–	–	–	1710	–	–	–	–	–	–
[16], exposure time: 4 dpf	–	–	–	–	1150	–	–	–	–	–	–
[17], exposure time: 2 dpf	–	1090	–	–	–	–	–	–	–	–	–
[17], exposure time: 4 dpf	–	702	–	–	–	–	–	–	–	–	–
[21], exposure time: 2 dpf	–	–	–	–	–	2940	–	–	–	–	–
[21], exposure time: 4 dpf	–	–	–	–	–	834	–	–	–	–	–
[23], exposure time: 2 dpf	–	–	1840	–	–	–	–	–	–	–	–
[23], exposure time: 4 dpf	–	–	485	–	–	–	–	–	–	–	–
[28], 1.29 µM	–	–	–	–	–	–	–	–	–	–	1.94
[28], 1.93 µM	–	–	–	–	–	–	–	–	–	–	1.98 ± 0.98
[28], 2.9 µM	–	–	–	–	–	–	–	–	–	–	2.62 ± 0.97
[28], 4.35 µM	–	–	–	–	–	–	–	–	–	–	1.95 ± 0.76
[28], 5.2 µM	–	–	–	–	–	–	–	–	–	–	0.71
[28], 6.52 µM	–	–	–	–	–	–	–	–	–	–	1.41 ± 0.83
[28], 9.78 µM	–	–	–	–	–	–	–	–	–	–	1.62 ± 0.014

Conditions	EC10 Bladder size Decrease [nM]	EC10 Curvature Increase [nM]	EC10 Eye-jaw distance Decrease [nM]	EC10 LMR dark [nM]	EC10 Otolith-eye distance Decrease [nM]	EC10 Yolk sac size Increase [nM]	EC20 Bladder size Decrease [nM]	EC20 Curvature Increase [nM]	EC20 Eye-jaw distance Decrease [nM]	EC20 LMR dark [nM]	EC20 Otolith-eye distance Decrease [nM]	EC20 Yolk sac size Increase [nM]	EC50 Bladder size Decrease [nM]	EC50 Curvature Increase [nM]	EC50 Eye-jaw distance Decrease [nM]	EC50 LMR dark [nM]	EC50 Otolith-eye distance Decrease [nM]	EC50 Yolk sac size Increase [nM]
[2]	–	–	–	–	–	–	–	–	–	–	–	–	–	–	–	2380	–	–
[3]	–	–	–	–	–	–	–	–	–	–	–	–	–	6370	–	–	–	–
[5]	–	–	–	–	–	–	–	–	–	–	–	–	1510	–	–	–	–	–
[7]	–	–	–	–	–	–	–	–	–	–	–	–	–	–	–	–	–	3420
[8]	–	–	–	–	–	–	–	–	–	–	–	–	–	–	2360	–	–	–
[9]	–	–	–	–	–	–	–	–	–	–	–	–	–	–	–	–	2000	–
[10]	–	–	–	362	–	–	–	–	–	–	–	–	–	–	–	–	–	–
[11]	–	–	–	–	–	–	–	–	–	767	–	–	–	–	–	–	–	–
[14]	–	2280	–	–	–	–	–	–	–	–	–	–	–	–	–	–	–	–
[15]	–	–	–	–	–	–	–	3340	–	–	–	–	–	–	–	–	–	–
[18]	780	–	–	–	–	–	–	–	–	–	–	–	–	–	–	–	–	–
[19]	–	–	–	–	–	–	994	–	–	–	–	–	–	–	–	–	–	–
[20]	–	–	–	–	–	–	–	–	–	–	–	2620	–	–	–	–	–	–
[22]	–	–	–	–	–	2240	–	–	–	–	–	–	–	–	–	–	–	–
[24]	–	–	–	–	–	–	–	–	1040	–	–	–	–	–	–	–	–	–
[25]	–	–	645	–	–	–	–	–	–	–	–	–	–	–	–	–	–	–
[26]	–	–	–	–	–	–	–	–	–	–	964	–	–	–	–	–	–	–
[27]	–	–	–	–	629	–	–	–	–	–	–	–	–	–	–	–	–	–
